The assay has as its system BDF1 mice, P388 leukemia ip, median survival T/C. The assay is described as follows: NCI In Vivo Anticancer Drug Screen. Data for tumor model P388 Leukemia (intraperitoneal) in B6D2F1 (BDF1) mice. The conditions noted are these: endpoint: median survival time, higher = longer survival. In short, it runs like this:
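Transplantable tumour in mice; compound vs vehicle dosing; survival scored; ratio of treated to control reported.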

[1] abbreviates: dose: 50.0 mg/kg/injection, schedule: Q04DX003 (ip), vehicle: saline with Tween-80.
Where [2] appears, read: dose: 100.0 mg/kg/injection, schedule: Q04DX003 (ip), vehicle: saline with Tween-80.
The mark [3] stands for this setting: dose: 200.0 mg/kg/injection, schedule: Q04DX003 (ip), vehicle: saline with Tween-80.
[4] abbreviates: dose: 400.0 mg/kg/injection, schedule: Q04DX003 (ip), vehicle: saline with Tween-80.
Where [5] appears, read: dose: 100.0 mg/kg/injection, schedule: Q01DX001 (ip), vehicle: saline with Tween-80.
Where [6] appears, read: dose: 200.0 mg/kg/injection, schedule: Q01DX001 (ip), vehicle: saline with Tween-80.
Where [7] appears, read: dose: 12.5 mg/kg/injection, schedule: Q01DX009 (ip), vehicle: Klucel (hydroxypropylcellulose) (HPC).
[8] abbreviates: dose: 25.0 mg/kg/injection, schedule: Q01DX009 (ip), vehicle: Klucel (hydroxypropylcellulose) (HPC).
Setting [9] is: dose: 100.0 mg/kg/injection, schedule: Q01DX009 (ip), vehicle: Klucel (hydroxypropylcellulose) (HPC).
Setting [10] is: dose: 50.0 mg/kg/injection, schedule: Q01DX009 (ip), vehicle: saline with Tween-80.
The mark [11] stands for this setting: dose: 100.0 mg/kg/injection, schedule: Q01DX009 (ip), vehicle: saline with Tween-80.
Setting [12] is: dose: 200.0 mg/kg/injection, schedule: Q01DX009 (ip), vehicle: saline with Tween-80.

“And” between values parts separate entries of the source, which are not always exact repeats. Identical values can stand only once. Toxic doses and inconclusive results are not listed.

`Clc1ccc(C2c3ccccc3C[n+]3ccccc32)cc1` (centres undefined): the T/C reads like this: (dose: 8.75 mg/kg/injection, schedule: Q01DX009 (ip), vehicle: Klucel (hydroxypropylcellulose) (HPC)) 113 % of control; (dose: 12.5 mg/kg/injection, schedule: Q04DX003 (ip), vehicle: Klucel (hydroxypropylcellulose) (HPC)) 95 % of control; (dose: 17.5 mg/kg/injection, schedule: Q01DX009 (ip), vehicle: Klucel (hydroxypropylcellulose) (HPC)) 109 % of control; (dose: 25.0 mg/kg/injection, schedule: Q04DX003 (ip), vehicle: Klucel (hydroxypropylcellulose) (HPC)) 91 % of control.
For the compound `COc1ccc(C=C2C(=O)N(C)C(=O)N(C)C2=O)cc1`, the T/C (dose: 50.0 mg/kg/injection, schedule: Q01DX009 (ip), vehicle: other) was 119 % of control.
Take `Cc1cc(N/N=C/c2ccc(N(CCCl)CCCl)cc2)c2cc3c(cc2n1)OCO3`: the T/C (dose: 12.5 mg/kg/injection, schedule: Q04DX003 (ip), vehicle: saline with Tween-80) is 114 % of control; the T/C (dose: 25.0 mg/kg/injection, schedule: Q04DX003 (ip), vehicle: saline with Tween-80) was 105 % of control; the T/C under setting [1] was 115 % of control.
As to `COC(=O)c1ccc2oc(=O)cc(C)c2c1O`, the T/C is 104 % of control under setting [2], 100 % of control under setting [3] and 95 % of control under setting [4].
As for `O=C(NO)c1ccc(O)c(O)c1`, the T/C runs as follows: (dose: 200.0 mg/kg/injection, schedule: Q01DX005 (ip), vehicle: water) 153 % of control; (dose: 400.0 mg/kg/injection, schedule: Q01DX005 (ip), vehicle: water) 166 % of control.
With `O=C(O)c1onc2ccccc12`, the T/C under setting [5] is 113 % of control and the T/C under setting [6] is 90 % of control.
With `NS(=O)(=O)CS(=O)(=O)Oc1ccccc1`, the T/C is, setting by setting: under setting [5], 100 % of control; under setting [6], 99 % of control.
In the case of `O=c1[nH]cc(F)c(=O)[nH]1.[Tl]`, the T/C is, setting by setting: (dose: 6.25 mg/kg/injection, schedule: Q01DX009 (ip), vehicle: Klucel (hydroxypropylcellulose) (HPC)) 117 % of control; under setting [7], 102 % of control and 110 % of control; under setting [8], 87 % of control; under setting [9], 91 % of control.
In the case of `Cc1ccccc1CC(N)C(=O)O` (centres undefined), the T/C by setting is: under setting [10], 92 % of control; under setting [11], 92 % of control; under setting [12], 90 % of control.
Turning to `CCCCOC(=O)c1[nH]cnc1/N=N\N(C)C`, the T/C is, setting by setting: under setting [7], 104 % of control; under setting [8], 109 % of control; (dose: 50.0 mg/kg/injection, schedule: Q01DX009 (ip), vehicle: Klucel (hydroxypropylcellulose) (HPC)) 104 % of control; under setting [9], 100 % of control; (dose: 132.0 mg/kg/injection, schedule: Q04DX003 (ip), vehicle: Klucel (hydroxypropylcellulose) (HPC)) 100 % of control and 113 % of control; (dose: 200.0 mg/kg/injection, schedule: Q04DX003 (ip), vehicle: Klucel (hydroxypropylcellulose) (HPC)) 95 % of control and 113 % of control. For the same compound, the T/C (dose: 300.0 mg/kg/injection, schedule: Q04DX003 (ip), vehicle: Klucel (hydroxypropylcellulose) (HPC)) is 109 % of control and 118 % of control.
Regarding `CCCCN(CCCC)CCC(=O)c1ccc(OC)c2ccccc12`, the T/C under setting [10] was 86 % of control.
As for `FC(F)(F)c1cccc(C=Nc2ccc(Oc3ccccc3)cc2)c1`, the T/C reads like this: (dose: 50.0 mg/kg/injection, schedule: Q01DX009 (ip), vehicle: saline + alcohol) 97 % of control; (dose: 100.0 mg/kg/injection, schedule: Q01DX009 (ip), vehicle: saline + alcohol) 91 % of control; (dose: 200.0 mg/kg/injection, schedule: Q01DX009 (ip), vehicle: saline + alcohol) 100 % of control.
With `C(=NCCc1ccccc1)c1ccccc1B1OB(c2ccccc2C=NCCc2ccccc2)OB(c2ccccc2C=NCCc2ccccc2)O1`, the T/C is 88 % of control under setting [9]; 100 % of control (dose: 100.0 mg/kg/injection, schedule: Q04DX003 (ip), vehicle: Klucel (hydroxypropylcellulose) (HPC)); 105 % of control (dose: 200.0 mg/kg/injection, schedule: Q01DX009 (ip), vehicle: Klucel (hydroxypropylcellulose) (HPC)); 88 % of control (dose: 400.0 mg/kg/injection, schedule: Q01DX009 (ip), vehicle: Klucel (hydroxypropylcellulose) (HPC)); 91 % of control (dose: 400.0 mg/kg/injection, schedule: Q04DX003 (ip), vehicle: Klucel (hydroxypropylcellulose) (HPC)).
Consider `COc1cc(C(=O)O)c2c(c1C)OC(=O)c1c(C)cc(O)c(C=O)c1O2`, for which the T/C (dose: 2.0 mg/kg/injection, schedule: Q01DX010 (ip), vehicle: saline) is 95 % of control; the T/C (dose: 4.0 mg/kg/injection, schedule: Q01DX009 (ip), vehicle: Klucel (hydroxypropylcellulose) (HPC)) is 109 % of control; the T/C (dose: 4.0 mg/kg/injection, schedule: Q01DX010 (ip), vehicle: saline) is 90 % of control and 122 % of control and 123 % of control; the T/C (dose: 8.0 mg/kg/injection, schedule: Q01DX010 (ip), vehicle: saline) was 90 % of control; the T/C (dose: 10.0 mg/kg/injection, schedule: Q04DX003 (ip), vehicle: saline) is 104 % of control; the T/C (dose: 16.0 mg/kg/injection, schedule: Q01DX010 (ip), vehicle: saline) was 113 % of control and 123 % of control. For the same compound, the T/C reads like this: (dose: 20.0 mg/kg/injection, schedule: Q04DX003 (ip), vehicle: saline) 115 % of control; (dose: 40.0 mg/kg/injection, schedule: Q01DX001 (ip), vehicle: saline) 111 % of control; (dose: 80.0 mg/kg/injection, schedule: Q01DX001 (ip), vehicle: saline) 115 % of control; (dose: 80.0 mg/kg/injection, schedule: Q04DX003 (ip), vehicle: saline) 104 % of control.
As for `C[CH2][Sn]([c]1ccccc1)([c]1ccccc1)[c]1ccccc1`, the T/C (dose: 12.5 mg/kg/injection, schedule: Q01DX009 (ip), vehicle: saline with Tween-80) was 104 % of control; the T/C (dose: 25.0 mg/kg/injection, schedule: Q01DX009 (ip), vehicle: saline with Tween-80) is 109 % of control; the T/C under setting [10] is 104 % of control.
As to `C=C(C)C(=O)NCCC(=O)Oc1ccc([N+](=O)[O-])cc1`, the T/C was 95 % of control under setting [10], 87 % of control under setting [11] and 86 % of control under setting [12].
As for `O=P(N1CC1)(N1CC1)N1CCc2ccccc21`, the T/C reads like this: (dose: 9.0 mg/kg/injection, schedule: Q01DX009 (ip), vehicle: saline) 91 % of control; (dose: 13.0 mg/kg/injection, schedule: Q01DX009 (ip), vehicle: saline) 104 % of control; (dose: 20.0 mg/kg/injection, schedule: Q01DX009 (ip), vehicle: saline) 104 % of control; (dose: 30.0 mg/kg/injection, schedule: Q04DX003 (ip), vehicle: saline) 114 % of control; (dose: 33.0 mg/kg/injection, schedule: Q01DX009 (ip), vehicle: saline) 157 % of control; (dose: 44.0 mg/kg/injection, schedule: Q04DX003 (ip), vehicle: saline) 117 % of control and 119 % of control. For the same compound, the T/C by setting is: (dose: 50.0 mg/kg/injection, schedule: Q01DX009 (ip), vehicle: saline) 166 % of control and 173 % of control; (dose: 75.0 mg/kg/injection, schedule: Q01DX009 (ip), vehicle: saline) 176 % of control; (dose: 100.0 mg/kg/injection, schedule: Q04DX003 (ip), vehicle: saline) 170 % of control and 176 % of control; (dose: 150.0 mg/kg/injection, schedule: Q04DX003 (ip), vehicle: saline) 255 % of control and 195 % of control; (dose: 200.0 mg/kg/injection, schedule: Q04DX003 (ip), vehicle: saline) 96 % of control.
In the case of `CCOC(=O)C(Cc1ccccc1Cl)(NC(C)=O)C(=O)OCC`, the T/C was 100 % of control under setting [11]; 90 % of control under setting [2]; 100 % of control under setting [3]; 90 % of control (dose: 400.0 mg/kg/injection, schedule: Q01DX009 (ip), vehicle: saline with Tween-80); 104 % of control under setting [4].
`COc1ccc(/C=C/C(=O)c2ccc(OCc3ccccc3)c(OC)c2)cc1OC`: the T/C runs as follows: under setting [1], 105 % of control; under setting [2], 99 % of control; under setting [3], 87 % of control; under setting [4], 87 % of control.
Take `O=C1NNCc2c1oc1ccccc21`: the T/C under setting [10] was 96 % of control, the T/C under setting [11] was 114 % of control and the T/C under setting [12] was 90 % of control.

Source of the values: PubChem BioAssay AID328 (DTP/NCI, 2004).
